The source of these data is ChEMBL document CHEMBL1150384, “Design, synthesis, and evaluation of potential inhibitors of nitric oxide synthase” (Bioorg Med Chem, 2008).

Chain of Nitric oxide synthase 1 (P29475 whole entry): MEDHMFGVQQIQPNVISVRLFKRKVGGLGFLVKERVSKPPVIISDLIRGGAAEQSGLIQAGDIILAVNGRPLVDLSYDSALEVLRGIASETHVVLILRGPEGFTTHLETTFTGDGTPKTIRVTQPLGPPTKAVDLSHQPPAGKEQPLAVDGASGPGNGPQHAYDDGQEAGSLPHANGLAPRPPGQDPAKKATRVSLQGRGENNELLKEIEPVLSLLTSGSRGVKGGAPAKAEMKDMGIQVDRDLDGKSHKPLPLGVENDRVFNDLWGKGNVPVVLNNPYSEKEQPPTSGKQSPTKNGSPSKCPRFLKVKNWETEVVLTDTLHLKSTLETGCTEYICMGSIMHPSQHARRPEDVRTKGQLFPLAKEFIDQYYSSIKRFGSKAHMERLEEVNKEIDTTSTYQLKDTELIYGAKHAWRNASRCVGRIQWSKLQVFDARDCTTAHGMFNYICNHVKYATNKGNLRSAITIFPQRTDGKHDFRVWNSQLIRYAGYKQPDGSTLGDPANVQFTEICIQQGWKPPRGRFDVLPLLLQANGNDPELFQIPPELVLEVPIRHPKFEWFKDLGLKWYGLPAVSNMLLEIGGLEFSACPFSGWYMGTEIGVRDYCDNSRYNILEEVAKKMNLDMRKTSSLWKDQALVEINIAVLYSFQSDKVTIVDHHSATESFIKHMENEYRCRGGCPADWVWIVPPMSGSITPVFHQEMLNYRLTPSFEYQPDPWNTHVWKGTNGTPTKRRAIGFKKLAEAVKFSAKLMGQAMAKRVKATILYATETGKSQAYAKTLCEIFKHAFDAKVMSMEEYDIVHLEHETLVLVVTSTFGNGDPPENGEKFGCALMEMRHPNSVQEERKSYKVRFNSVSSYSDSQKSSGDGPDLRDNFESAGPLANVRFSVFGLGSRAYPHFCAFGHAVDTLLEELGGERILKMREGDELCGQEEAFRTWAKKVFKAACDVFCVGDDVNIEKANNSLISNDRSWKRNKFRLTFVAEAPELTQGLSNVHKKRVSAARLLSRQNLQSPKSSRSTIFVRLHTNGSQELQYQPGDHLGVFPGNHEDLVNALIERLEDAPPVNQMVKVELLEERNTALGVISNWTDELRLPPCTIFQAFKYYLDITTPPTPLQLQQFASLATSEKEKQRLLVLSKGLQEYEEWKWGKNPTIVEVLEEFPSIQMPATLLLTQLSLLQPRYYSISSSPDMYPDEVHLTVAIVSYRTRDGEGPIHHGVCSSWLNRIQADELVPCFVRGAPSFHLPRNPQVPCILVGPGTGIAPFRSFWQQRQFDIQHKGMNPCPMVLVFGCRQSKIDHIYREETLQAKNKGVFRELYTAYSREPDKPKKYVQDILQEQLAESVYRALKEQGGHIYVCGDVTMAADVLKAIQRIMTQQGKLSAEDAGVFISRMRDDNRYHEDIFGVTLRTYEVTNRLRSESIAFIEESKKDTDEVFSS

This experiment concerns the target Nitric oxide synthase 1 (Homo sapiens, UniProt P29475).
Description: Inhibition of nNOS assessed as conversion of L-[3H]arginine to L-[3H]citrulline
In turn, `O=C(Cn1ccnc1)c1ccc([N+](=O)[O-])cc1` gave a Ki of 105 µM.

`N=C(N)SCCc1ccc(CCSC(=N)N)cc1` gave a Ki of 0.016 µM.

Regarding `Cc1nccn1CC(=O)c1ccc([N+](=O)[O-])cc1`, the Ki was 74 µM.

In turn, `CCNC(=N)NN` returned a Ki of 1 µM.

Molecule `Nc1nccs1` [AMINOTHIAZOLE] registered a Ki of 12 µM.

For the molecule `Brc1cccc(OCCCCn2ccnc2)c1`, the Ki was 60 µM.

In the case of `CCCCC/N=C(\N)n1cccn1`, the Ki stood at 60 µM.

Molecule `N=C(N)SCc1ccccc1` [BENZYL CARBAMIMIDOTHIOATE] returned a Ki of 14 µM.

`Nc1nc(CCc2ccccc2)cs1` displayed a Ki of 0.89 µM.

Take `CCCSC(=N)N`: affinity was put at a Ki of 0.63 µM.

Take `c1ccc(-c2ccc(CCn3ccnc3)cc2)cc1`: affinity was put at a Ki of 175 µM.

`N[C@@H](CCc1cnc[nH]1)C(=O)O`: the affinity, expressed as Ki, was 170 µM.

For `N=C(N)NN` [PIMAGEDINE], the affinity, expressed as Ki, was 3.3 µM.

On to `CC(=N)Nc1cccc(CSC(=N)N)c1`, for which the Ki came out at 0.36 µM.

Consider `CC(=N)Nc1cccc(NC(C)=N)c1`, for which the Ki came out at 1.5 µM.

`FC(F)(F)c1ccc(OCCCn2ccnc2)cc1` returned a Ki of 75 µM.

`FC(F)(F)c1ccc(OCCn2ccnc2)cc1` came in with a Ki of 45 µM.

In turn, `Cc1ccn(C(=N)N)n1` yielded a Ki of 8 µM.

For `CC(=N)Nc1cccc(CNCc2cccc(C(C)=N)c2)c1`, the Ki was 0.042 µM.

The molecule `Brc1ccc(OCCCCCCn2ccnc2)cc1` came in with a Ki of 57 µM.

In turn, `CC(C)SC(=N)N` registered a Ki of 0.037 µM.

`N[C@@H](CCCCc1cncn1-c1ccccc1)C(=O)O`: the Ki is 100 µM.

`N=C(Nc1cccc(CN)c1)n1cccn1` returned a Ki of 2 µM.

On to `N=C(NN)NO`, for which the Ki is 0.68 µM.

Consider `CCCC/N=C(\N)n1cccn1`, for which the affinity, expressed as Ki, was 14 µM.

The molecule `CNCc1cccc(NC(C)=N)c1` returned a Ki of 0.056 µM.

`c1ccc(-n2ccnc2)cc1` showed a Ki of 430 µM.

On to `N=C(NCCC[C@H](N)C(=O)N[C@@H]1CN[C@@H](C(N)=O)C1)N[N+](=O)[O-]`, for which the Ki was found to be 1.1 µM.

Regarding `CC(=N)Nc1cccc(CCN)c1`, the Ki came to 1 µM.

`C=CCC(=N)NCCC[C@H](N)C(=O)O` displayed a Ki of 0.1 µM.

`CC(=N)Nc1cccc(S(N)(=O)=O)c1` had a Ki of 29 µM.

Molecule `NC(=O)[C@@H]1C[C@@H](NC(=O)[C@@H](N)CCC/N=C(\N)N[N+](=O)[O-])CN1` gave a Ki of 0.1 µM.

The molecule `CCC/N=C(\N)n1cccn1` registered a Ki of 3 µM.

In the case of `CC(=N)Nc1cccc(C(=N)N)c1`, the Ki was determined as 0.57 µM.

The molecule `N=C(N)SCCc1ccccc1` yielded a Ki of 0.8 µM.

Consider `N=C(NCC1CC1)n1cccn1`, for which the Ki stood at 10 µM.

Molecule `N[C@@H](CCCCCCc1cnc[nH]1)C(=O)O` showed a Ki of 150 µM.

As for `Brc1ccc(OCCCn2ccnc2)cc1`, the Ki was 125 µM.

`N=C(NN)Nc1ccccc1` yielded an inhibition constant (Ki) of 4 µM.

Turning to `CC(C)(C)SC(=N)N`, the affinity corresponds to a Ki of 0.62 µM.

Take `CC(=N)Nc1cccc(CN2CCOCC2)c1`: the Ki was 2.8 µM.

As for `FC(F)(F)c1ccc(OCCCCCCn2ccnc2)cc1`, affinity was put at a Ki of 35 µM.

Consider `FC(F)(F)c1ccc(OCCCCn2ccnc2)cc1`, for which the Ki is 94 µM.

As to `Cc1cc(C)n(C(=N)N)n1`, the Ki was 350 µM.

For `N=C(N)SCCc1cccc(CCSC(=N)N)c1`, the Ki amounted to 0.25 µM.

`N[C@@H](CCCCCc1cnc[nH]1)C(=O)O` registered a Ki of 2 µM.

`CNC(=N)NN`: the Ki was 14 µM.

With `OC(Cn1ccnc1)c1ccc(-c2ccccc2)cc1` (centres undefined), the affinity, expressed as Ki, was 125 µM.

Molecule `CC(=N)Nc1cccc(CNO)c1` showed a Ki of 2.1 µM.

As for `CC(=N)Nc1cccc(N)c1`, the affinity corresponds to a Ki of 14 µM.

As for `CCC(=N)NCCC[C@H](N)C(=O)O`, affinity was put at a Ki of 3 µM.

As for `Cc1csc(N)n1`, the inhibition constant Ki was 10 µM.

Regarding `N=C(N)SCCCc1cccc(CCCSC(=N)N)c1`, affinity was put at a Ki of 4.8 µM.

`N=C(NC1CC1)n1cccn1`: the Ki came to 50 µM.

Molecule `NCCCC/N=C(\N)n1cccn1` had a Ki of 6 µM.

`c1c[nH]cn1` [IMIDAZOLE] displayed a Ki of 175 µM.

`NC1=NCCS1`: the Ki came to 0.41 µM.

The molecule `N[C@@H](CCCCCc1cncn1-c1ccccc1)C(=O)O` had a Ki of 70 µM.

`Brc1ccc(OCCn2ccnc2)cc1` returned a Ki of 125 µM.

For the molecule `CCSC(=N)N` [ETHYLISOTHIOUREA], the Ki amounted to 0.029 µM.

The molecule `Cc1cnc(N)s1` gave a Ki of 1.1 µM.

`Cc1cnn(C(=N)N)c1` showed a Ki of 12 µM.

As to `Brc1ccccc1OCCCCn1ccnc1`, affinity was put at a Ki of 180 µM.

In turn, `N=C(N)SCCCc1ccccc1` displayed a Ki of 14 µM.

Molecule `O=C(Cn1ccnc1)c1ccccc1[N+](=O)[O-]` gave a Ki of 375 µM.

Molecule `N=C(N)n1cccn1` [PRAXADINE] gave a Ki of 0.4 µM.

Turning to `N[C@@H](CCCc1cnc[nH]1)C(=O)O`, the Ki turned out to be 2 µM.

In the case of `CCCC(=N)NCCC[C@H](N)C(=O)O`, the Ki came out at 5.3 µM.

Molecule `CC(C)C/N=C(\N)n1cccn1` came in with a Ki of 45 µM.

`CC(=N)Nc1cccc(CN(C)C)c1` had a Ki of 0.17 µM.

For the molecule `CC(C)=CCSC(=N)N`, the Ki was determined as 2 µM.

Consider `Cc1nc(N)sc1C`, for which the Ki worked out at 0.38 µM.

Molecule `N=C(N)SCCN` registered a Ki of 1.8 µM.

`N[C@@H](CCCc1cncn1-c1ccccc1)C(=O)O`: affinity was put at a Ki of 80 µM.

Take `CC(=N)Nc1cccc(NN)c1`: affinity was put at a Ki of 1.1 µM.

Consider `N[C@@H](CCCCc1cnc[nH]1)C(=O)O`, for which the Ki is 65 µM.

`Brc1ccc(OCCCCn2ccnc2)cc1` gave a Ki of 32 µM.

Take `CC(=N)Nc1cccc(CN=C(C)N)c1`: the Ki was found to be 0.37 µM.

For `N=C(N)SCc1ccc(CSC(=N)N)cc1`, the Ki came out at 0.1 µM.
